Test [1] has as its target T1, human recombinant HDAC6 (Homo sapiens, UniProt Q9UBN7).
T1 construct: purchased Calbiochem 382180
T1 sequence (Q9UBN7 1-1215): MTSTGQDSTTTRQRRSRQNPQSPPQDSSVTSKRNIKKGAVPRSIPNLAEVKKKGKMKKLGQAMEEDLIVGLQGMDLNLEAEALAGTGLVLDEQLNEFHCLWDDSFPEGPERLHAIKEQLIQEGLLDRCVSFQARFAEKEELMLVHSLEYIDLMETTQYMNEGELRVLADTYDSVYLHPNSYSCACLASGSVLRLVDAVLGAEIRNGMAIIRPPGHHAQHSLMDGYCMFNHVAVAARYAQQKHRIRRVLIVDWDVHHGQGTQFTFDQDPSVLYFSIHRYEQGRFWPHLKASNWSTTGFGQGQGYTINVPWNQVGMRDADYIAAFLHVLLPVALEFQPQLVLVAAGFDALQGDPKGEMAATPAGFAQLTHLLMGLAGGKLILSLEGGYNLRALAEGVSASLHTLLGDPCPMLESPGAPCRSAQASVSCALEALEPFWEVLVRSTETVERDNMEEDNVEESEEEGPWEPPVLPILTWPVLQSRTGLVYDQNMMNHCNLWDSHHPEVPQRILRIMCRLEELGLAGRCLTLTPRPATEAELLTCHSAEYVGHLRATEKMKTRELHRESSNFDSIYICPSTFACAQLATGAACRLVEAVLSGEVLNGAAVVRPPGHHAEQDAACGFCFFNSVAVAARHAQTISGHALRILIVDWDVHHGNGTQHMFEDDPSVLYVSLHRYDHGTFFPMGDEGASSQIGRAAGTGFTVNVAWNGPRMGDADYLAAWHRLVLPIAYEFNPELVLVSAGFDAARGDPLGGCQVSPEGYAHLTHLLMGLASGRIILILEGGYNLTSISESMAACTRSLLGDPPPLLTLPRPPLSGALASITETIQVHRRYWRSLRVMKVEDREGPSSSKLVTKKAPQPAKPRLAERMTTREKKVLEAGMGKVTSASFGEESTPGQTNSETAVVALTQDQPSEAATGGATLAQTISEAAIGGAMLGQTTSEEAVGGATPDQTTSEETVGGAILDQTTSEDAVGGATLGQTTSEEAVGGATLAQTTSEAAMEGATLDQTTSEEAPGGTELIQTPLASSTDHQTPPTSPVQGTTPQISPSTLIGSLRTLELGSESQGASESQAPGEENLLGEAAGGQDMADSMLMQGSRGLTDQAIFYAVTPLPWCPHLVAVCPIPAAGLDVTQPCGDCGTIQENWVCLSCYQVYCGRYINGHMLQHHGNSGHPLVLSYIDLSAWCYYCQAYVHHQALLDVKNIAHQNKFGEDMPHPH
Description: HDAC6 enzyme activity inhibition assay (in vitro, fluorimetric). The format is biochemical. Conditions: for HDAC6 selectivity (fold): HDAC6 selectivity over HDAC1; for IC50: human recombinant HDAC6, fluorimetric kit, same protocol as HDAC1. The method, then: (§1) In order to examine the HDAC6 selectivity of the compounds of formula 1 of the present invention by HDAC1 and HDAC6 enzymatic activity inhibition assays, an experiment was performed using a conventional substance as a control.
(§2) HDAC enzyme activity was measured using a HDAC Fluorimetric Drug Discovery Kit (BML-AK511, 516, Enzo Life Science). For the HDAC1 enzyme activity test, human recombinant HDAC1 (BML-SE456) was used as an enzyme source, and Fluor de Lys®-“SIRT1 (BNL-KI177) was used as a substrate. A 5-fold dilution of the compound was seeded into a 96-well plate, and then 0.3 μg of the enzyme and 10 μM of the substrate were added to each well of the plate and allowed to react at 30° C. for 60 minutes. Then, Fluor de Lys® Developer II (BML-KI176) was added thereto and allowed to react for 30 minutes, after which the fluorescence value (Ex 360, Em 460) was measured using a multi-plate reader (Flexstation 3, Molecular Device). The HDAC6 enzyme was tested using human recombinant HDAC6 (382180) (Calbiochem) according to the same protocol as the HDAC1 enzyme activity test method. Based on the resulting values, each IC50 value was calculated using GraphPad Prism4.0 program.

For test [2], the target named is T2, human recombinant HDAC1 (Homo sapiens, UniProt Q13547).
T2 construct: purchased Enzo Life Science BML-SE456
T2 sequence (Q13547 whole entry): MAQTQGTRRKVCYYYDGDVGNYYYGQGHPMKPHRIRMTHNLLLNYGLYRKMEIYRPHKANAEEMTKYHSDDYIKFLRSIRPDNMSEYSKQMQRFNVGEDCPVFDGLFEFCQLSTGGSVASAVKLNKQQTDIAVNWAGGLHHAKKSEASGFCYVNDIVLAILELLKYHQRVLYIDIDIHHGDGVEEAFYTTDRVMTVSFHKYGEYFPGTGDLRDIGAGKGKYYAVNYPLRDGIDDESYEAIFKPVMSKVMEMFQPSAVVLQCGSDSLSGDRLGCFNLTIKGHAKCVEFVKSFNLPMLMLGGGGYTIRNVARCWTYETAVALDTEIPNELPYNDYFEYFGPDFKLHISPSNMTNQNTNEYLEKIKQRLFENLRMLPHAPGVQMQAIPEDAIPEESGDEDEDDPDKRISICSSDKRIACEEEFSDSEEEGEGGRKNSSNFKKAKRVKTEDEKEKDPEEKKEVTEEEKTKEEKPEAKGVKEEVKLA
Description: HDAC1 enzyme activity inhibition assay (in vitro, fluorimetric). Format: biochemical. The settings on record: human recombinant HDAC1, fluorimetric kit, 30° C. 60 minutes. The procedure: as §1, §2

Where only a bound is given, the exact number is not on record here.

For the molecule `CCN(CC)CC(C)NCc1cccc(C(=O)N2[C@H](C)CN(Cc3ccc(C(=O)NO)cc3)C[C@@H]2C)c1` (stereo partly drawn) [Compound 440, 4-(((3R,5S)-4-(3-(((1-(diethylamino)propan-2-yl)amino)methyl)benzoyl)-3,5-dimethylpiperazin-1-yl)methyl)-N-hydroxybenzamide], in test [1], the “HDAC6 selectivity (fold)” value is recorded as 71 fold and the IC50 (usually the concentration that gives 50% inhibition) worked out at 78 nM. Besides, the IC50 in test [2] stood at 5600 nM.
On to `C[C@@H]1CN(CC(C)(C)F)C[C@H](C)N1Cc1ccc(C(=O)NO)cc1` [Compound 193, 4-(((2S,6R)-4-(2-fluoro-2-methylpropyl)-2,6-dimethylpiperazin-1-yl)methyl)-N-hydroxybenzamide], for which, in test [1], the “HDAC6 selectivity (fold)” value was 60 fold and the IC50 came out at 271 nM. In addition, the IC50 in test [2] was found to be 16300 nM.
The corresponding values for `C[C@@H]1CN(Cc2ccc(C(=O)NO)cc2)C[C@H](C)N1C(=O)Cc1ccccc1` [Compound 146, 4-(((3R,5S)-3,5-dimethyl-4-(2-phenylacetyl)piperazin-1-yl)methyl)-N-hydroxybenzamide] are 314 fold, 19 nM and 6000 nM.
For `C[C@@H]1CN(Cc2ccc(C(=O)NO)cc2)C[C@H](C)N1C(=O)c1ccc(CN2CC[C@@H](F)C2)cc1` [Compound 460, 4-(((3R,5S)-4-(4-(((R)-3-fluoropyrrolidin-1-yl)methyl)benzoyl)-3,5-dimethylpiperazin-1-yl)methyl)-N-hydroxybenzamide] the same measures were 20 fold, 219 nM and 4400 nM.
For `C[C@@H]1CN(Cc2cccc(-n3cccc3)c2)C[C@H](C)N1Cc1ccc(C(=O)NO)cc1` [Compound 256, 4-(((2S,6R)-4-(3-(1H-pyrrol-1-yl)benzyl)-2,6-dimethylpiperazin-1-yl)methyl)-N-hydroxybenzamide] the same measures were 15 fold, 303 nM and 4600 nM.
In the case of `C[C@@H]1CN(Cc2ccc(C(=O)NO)cc2)C[C@H](C)N1C(=O)c1cnccn1` [Compound 404, 4-(((3R,5S)-3,5-dimethyl-4-(pyrazine-2-carbonyl)piperazin-1-yl)methyl)-N-hydroxybenzamide], the “HDAC6 selectivity (fold)” value in test [1] is listed as 30 fold. Moreover, the IC50 in test [1] is 182 nM; in test [2] it was 5500 nM.
The corresponding values for `C[C@@H]1CN(Cc2ccc(C(=O)NO)cc2)C[C@H](C)N1Cc1cc(F)c(F)cc1F` [Compound 213, 4-(((3R,5S)-3,5-dimethyl-4-(2,4,5-trifluorobenzyl)piperazin-1-yl)methyl)-N-hydroxybenzamide] are greater than 29 fold, 349 nM and greater than 10000 nM.
Consider `C[C@@H]1CN(Cc2ccc(C(=O)NO)cc2)C[C@H](C)N1Cc1ccccc1C1=CCC(C)(C)CC1` [Compound 331, 4-(((3R,5S)-4-((4′,4′-dimethyl-2′,3′,4′,5′-tetrahydro-[1,1′-biphenyl]-2-yl)methyl)-3,5-dimethylpiperazin-1-yl)methyl)-N-hydroxybenzamide], for which, in test [1], the “HDAC6 selectivity (fold)” value worked out at 13 fold and the IC50 is 731 nM.
As for `CC(=O)N1CCN(Cc2cccc(C(=O)N3[C@H](C)CN(Cc4ccc(C(=O)NO)cc4)C[C@@H]3C)c2)CC1` [Compound 435, 4-(((3R,5S)-4-(3-((4-acetylpiperazin-1-yl)methyl)benzoyl)-3,5-dimethylpiperazin-1-yl)methyl)-N-hydroxybenzamide], in test [1], the “HDAC6 selectivity (fold)” value was 57 fold. The IC50 in test [1] is 90 nM; in test [2], 5100 nM.
The corresponding values for `C[C@@H]1CN(Cc2ccc(C(=O)NO)cc2)C[C@H](C)N1C(=O)c1ccccn1` [Compound 123, 4-(((3R,5S)-3,5-dimethyl-4-picolinoylpiperazin-1-yl)methyl)-N-hydroxybenzamide] are 2584 fold, 6 nM and 15500 nM.
The corresponding values for `C[C@@H]1CN(C(=O)c2cccc(C3=CCC(C)(C)CC3)c2)C[C@H](C)N1Cc1ccc(C(=O)NO)cc1` [Compound 263, 4-(((2S,6R)-4-(4′,4′-dimethyl-2′,3′,4′,5′-tetrahydro-[1,1′-biphenyl]-3-carbonyl)-2,6-dimethylpiperazin-1-yl)methyl)-N-hydroxybenzamide] are less than 7 fold, greater than 1000 nM and 6800 nM.
For the molecule `C[C@@H]1CN(Cc2ccc(C(=O)NO)cc2)C[C@H](C)N1Cc1ccccc1-c1ccoc1` [Compound 328, 4-(((3R,5S)-4-(2-(furan-3-yl)benzyl)-3,5-dimethylpiperazin-1-yl)methyl)-N-hydroxybenzamide], in test [1], the “HDAC6 selectivity (fold)” value is on record as 183 fold and the IC50 amounted to 102 nM. For the same molecule, in test [2], the half-maximal inhibitory concentration (IC50) amounted to 18700 nM.
For `CCN1CC=C(c2ccccc2CN2[C@H](C)CN(Cc3ccc(C(=O)NO)cc3)C[C@@H]2C)CC1` [Compound 485, 4-(((3R,5S)-4-(2-(1-ethyl-1,2,3,6-tetrahydropyridin-4-yl)benzyl)-3,5-dimethylpiperazin-1-yl)methyl)-N-hydroxybenzamide] the same measures were 101 fold, 145 nM and 14700 nM.
For `C[C@@H]1CN(Cc2ccc(C(=O)NO)c(O)c2)C[C@H](C)N1Cc1ccccc1` [Compound 652, 4-(((3R,5S)-4-benzyl-3,5-dimethylpiperazin-1-yl)methyl)-N,2-dihydroxybenzamide] the same measures were greater than 11 fold, 880 nM and greater than 10000 nM.
Turning to `C[C@@H]1CN(Cc2ccc(C(=O)NO)cc2)C[C@H](C)N1CCc1ccccc1` [Compound 184, 4-(((3R,5S)-3,5-dimethyl-4-phenethylpiperazin-1-yl)methyl)-N-hydroxybenzamide], in test [1], the “HDAC6 selectivity (fold)” value is reported as greater than 40 fold and the IC50 came out at 249 nM.
For `C[C@@H]1CN(Cc2ccc(C(=O)NO)c(F)c2)C[C@H](C)N1Cc1ccccc1` [Compound 171, 4-(((3R,5S)-4-benzyl-3,5-dimethylpiperazin-1-yl)methyl)-2-fluoro-N-hydroxybenzamide] the same measures were greater than 256 fold and 39 nM.
Take `CC(C)CCN1CCN(Cc2cccc(CN3[C@H](C)CN(Cc4ccc(C(=O)NO)cc4)C[C@@H]3C)c2)CC1` [Compound 454, N-hydroxy-4-(((3R,5S)-4-(3-((4-isopentylpiperazin-1-yl)methyl)benzyl)-3,5-dimethylpiperazin-1-yl)methyl)benzamide]: the IC50 in test [1] came out at 44 nM.
Consider `C[C@@H]1CN(Cc2ccccc2)C[C@H](C)N1Cc1ccc(CC(=O)NO)cc1` [Compound 176, 2-(4-(((2S,6R)-4-benzyl-2,6-dimethylpiperazin-1-yl)methyl)phenyl)-N-hydroxyacetamide], for which, in test [1], the “HDAC6 selectivity (fold)” value is greater than 23 fold and the IC50 was 429 nM.
For `C[C@@H]1CN(Cc2ccc3oc(C(=O)NO)cc3c2)C[C@H](C)N1Cc1ccccc1` [Compound 571, 5-(((3R,5S)-4-benzyl-3,5-dimethylpiperazin-1-yl)methyl)-N-hydroxybenzofuran-2-carboxamide] the same measures were 48 fold and 210 nM.

Source of the values: patent US10287255B2, “Compounds as histone deacetylase 6 inhibitors and pharmaceutical compositions comprising the same” (CHONG KUN DANG PHARMACEUTICAL CORP., priority 2014, dated 2019).
